The record followed here is patent publication US20260373248A1, “DEGRADABLE PEPTOIDS” (Medici Therapeutics, Inc., priority 2023, published 2026).

Data set [1] can be described thus: Delivery vehicle size and polydispersity by dynamic light scattering. Format: physicochemical. Put shortly: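 LNPs made by microfluidic mixing of ethanolic peptoid/DSPC/cholesterol/DMG-PEG2000 (20:1.79:7.16:1.84 by weight) with mRNA in 10 mM citrate pH 5.0 at 1:3 by volume, then dialyzed overnight at 4 °C against tris-sucrose pH 7.4. Size and PDI read by dynamic light scattering in PBS.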

The next data set relates to hEPO. The experiment in a line: Quantification of hEPO in serum after IV injection of mRNA (Human EPO ELISA). Format: in vivo. Conditions: Balb/c mice, 2.5 μg mRNA IV, serum after 6 hours. The method, then: Balb/c mice were treated with 2.5 μg of mRNA coding for human erythropoiten via IV injection according to a similar method as in Example 4. hEPO protein in the serum was quantified after 6 hours using the Human EPO ELISA Kit from Invitrogen (catalog #BMS2035-2). Wash buffer (PBS with 1% tween 20) and assay buffer (PBS with 1% tween 20, 10% BSA) were prepared from a 20× concentrate with milli-Q water. Serum samples were diluted with PBS according to expected EPO concentration, with a 50× dilution for low expression samples and up to a 30,000× dilution for samples expected to have high expression. Microwell strips were washed in a plate washer with wash buffer and tapped on an absorbent pad to remove excess buffer. 100 μL of sample diluent were added to each well that will be used for the standard curve. 50 μL of sample diluent was added to each sample well.
The standard curve was prepared by reconstituting the human erythropoietin standard by adding the volume of water listed on the vial label. Standard was swirled gently and allowed to reconstitute for 10 minutes prior to use, then 100 μL is added to standard wells and mixed well. 100 μL from standard wells were then transferred to sample wells and mixed well. This was repeated 5 times to produce 2 columns of standard dilutions from 100 to 1.6 mIU/mL. 100 μL was discarded from the last microwells. The final 2 wells contained 100 μL of sample diluent and served as a blank. An external standard was also included to facilitate a mIU/mL conversion to ng/mL. The same serial dilution method was repeated starting with the external standard at 6.25 ng/mL. Once the standards were added, 50 μL of each sample was added in duplicate to the sample wells. Next, the biotin-conjugate was prepared by diluting 1:100 in assay buffer. 50 μL of biotin-conjugate was added to all wells and the plate was covered with a plate seal and shaken at room temperature for 1 hour. During the last few minutes of shaking, streptavidin-HRP was prepared by diluting 1:100 in assay buffer. The plate was washed on a plate washer and tapped on an absorbent pad to remove remaining wash buffer.
100 μL of the diluted streptavidin-HRP was added to each well and the plate was sealed and shaken for 15 minutes at room temperature. After 15 minutes, the plate seal was removed and the plate was washed on a plate washer and remaining wash buffer tapped out on an absorbent pad. 100 μL of TMB substrate was added to all wells and the plate was incubated for 10 minutes at room temperature out of direct light. Color development was checked every few minutes and the assay was stopped when the highest standard was dark blue. The reaction was stopped by pipetting 100 μL of stop solution into each well. Immediately after stop solution was added, the plate was gently tapped to ensure the solution was mixed. Absorbance was then read at 450 nm for each well. A standard curve was plotted for both the kit-provided standards (mIU/mL) and the external standard (ng/mL) and fit using Prism. Sample absorbances that fell within the standard curve were interpolated and adjusted for dilution (including a 2× assay dilution). Samples that were not within the standard curve were repeated at an adjusted dilution.
(In general: In an ELISA, binding on a coated surface is turned into a signal by an enzyme label.)

For another data set, the system named is mRNA. Briefly: mRNA encapsulation (modified Quant-iT RiboGreen assay). It is filed as physicochemical. Conditions: for mean percent encapsulation of RNA: RiboGreen, without vs with Triton X-100; for % Encapsulation: mRNA. Put shortly: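 Peptoid nanoparticles were incubated with Triton X-100 for 10 min to release entrapped mRNA, then mixed with RiboGreen reagent and read by fluorescence (ex 485 nm/em 530 nm). Percent encapsulation was derived from the ratio of fluorescence without versus with Triton X-100.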

A further data set has as its system luciferase. Briefly: Luciferase expression after local (intramuscular or subcutaneous) administration of mRNA. Format: in vivo. As to conditions: mRNA 0.01 mpk, 6 hours; for IM Flux: intramuscular; for SC Flux: subcutaneous. The essentials: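 Female Balb/c mice (6-8 weeks) received fLuc mRNA in aminolipidated peptoid Nutshells at 0.01 mpk subcutaneously or intramuscularly, or 0.1 mpk intratumorally. At 6 hours, anesthetized mice were given D-luciferin IP and imaged 10 minutes later; harvested organs were also imaged and total photon flux quantified in regions of interest.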

Data set [2] is described as follows: Peptoid quantity remaining in liver by HPLC-TOF mass spectrometry. It is filed as in vivo. As to conditions: liver homogenate. The protocol:
Peptoid quantity in liver was determined via high-performance liquid chromatography coupled with time-of-flight mass spectrometer (HPLC-TOF). The entire liver was weighed, and then two sections were isolated using a provided biopsy punch for liver homogenization. Liver homogenate sample was prepared by resuspending 20 mg liver tissue in 400 μL extraction solvent (IPA/MeOH=8/2) containing an internal standard (400 pg/μL) followed by bead homogenization (45 sec per cycle for 3-4 cycles). Homogenized samples were centrifuged at 12,000 rpm for 8 min at 6 °C. The resulting supernatant was collected and stored at −20 °C for further LC analysis. 5 μL of the resulting supernatant sample from solid or liquid tissue was injected into a BEH C8 column on an Agilent 1290 Infinity II liquid chromatograph coupled with an Agilent 6230 LC-TOF system. Concentrations of peptoids were determined by a linear calibration curve (linear range:0.2-50 μg/g for solid tissue). Standard calibration curve solutions were prepared by spiking untreated liver followed by homogenization and centrifugation.

The subject of the next data set is firefly luciferase. Briefly: In vivo firefly luciferase expression after intravenous injection of fLuc mRNA delivery vehicles (IVIS imaging). Also on record: species or system female Balb/c mice. As to conditions: for Total Flux (luciferase expression): fLuc mRNA, intravenous, Balb/c mice; for Total Flux: mice, 2.5 ug fLuc mRNA intravenously, 6 hours post-injection. The essentials: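 Female Balb/c mice (6-8 weeks) given 2.5 ug fLuc mRNA in Nutshells IV. At 6 hours, IP D-luciferin (30 mg/mL, 10 μL/g) under isoflurane; IVIS imaging 10 minutes later, then harvested organs imaged ex vivo. Read-out: total photon flux in regions of interest.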

The mark [3] stands for this setting: DLS in PBS, peptoid:DSPC:Cholesterol:DMG-PEG2000 weight ratio 20:1.79:7.16:1.84, mRNA.

Non-standard residues stand in square brackets, D forms with d. Residues, ends and D or L forms follow the SMILES beside them. *: point of attachment. Gly(N-(3-decanoyloxypropyl)) = CCCCCCCCCC(=O)OCCCNCC(=O)O; N(3-lauroyloxypropyl)Gly = CCCCCCCCCCCC(=O)OCCCNCC(=O)O; N(2-decanoyloxyethyl)Gly = CCCCCCCCCC(=O)OCCNCC(=O)O; N(3-imidazol-1-ylpropyl)Gly = O=C(O)CNCCCn1ccnc1; Gly(N-3-morpholinopropyl) = O=C(O)CNCCCN1CCOCC1; N(2-ethylhexyl)Gly = CCCCC(CC)CNCC(=O)O; Gly(N-dodecyl) = CCCCCCCCCCCCNCC(=O)O; NHexGly = CCCCCCNCC(=O)O; For = O=C*

With `CCCCCCCCCC(=O)OCCN(CC(=O)N(CCOC(=O)CCCCCCCCC)CC(=O)N(CC(=O)N(CCOC(=O)CCCCCCCCC)CC(=O)N(CCOC(=O)CCCCCCCCC)CC(=O)N(CC(N)=O)CC(CC)CCCC)CC(CC)CCCC)C(=O)CN(C=O)CCCN1CCOCC1` (centres unmarked) [Compound 76] (For-[Gly(N-3-morpholinopropyl)][N(2-decanoyloxyethyl)Gly][N(2-decanoyloxyethyl)Gly][N(2-ethylhexyl)Gly][N(2-decanoyloxyethyl)Gly][N(2-decanoyloxyethyl)Gly][N(2-ethylhexyl)Gly]-NH2), the PDI in data set [1] (setting [3]) was 0.095. For the same compound, the “Particle Size” value in data set [1] (setting [3]) stood at 75.4 nm; in data set [1] (formulation recipe D22) it was 75.4 nm; in data set [1] (formulation recipe R1) it was 66.0 nm; in data set [1] (formulation recipe R5), 67.2 nm; in data set [1] (formulation recipe R6), 74.4 nm; in data set [1] (formulation recipe R7) it was 75.3 nm. In the data set on hEPO, this compound yielded a hEPO of 2140 ng/mL. For the same compound, the “mean percent encapsulation of RNA” value in the data set on mRNA was determined as 56.4%. The “% Encapsulation” value was 56.4% in the data set with mRNA (formulation recipe D22); 82.7% in the data set with mRNA (formulation recipe R1); 88.1% in the data set on mRNA (formulation recipe R5); 87.6% in the data set with mRNA (formulation recipe R6); 79.9% in the data set with mRNA (formulation recipe R7). Moreover, the “IM Flux” value in the data set with luciferase was found to be 1.70E+08 p/s. Also, the “SC Flux” value in the data set with luciferase was found to be 8.95E+07 p/s. In data set [2], the “% of injected dose remaining in liver” value worked out at 7.34%. Moreover, the “Total Flux (luciferase expression)” value in the data set with firefly luciferase (formulation recipe D22) was 5.54E+09 p/s; with firefly luciferase (formulation recipe R1) it was 5.94E+08 p/s; in the data set with firefly luciferase (formulation recipe R5), 1.00E+09 p/s; in the data set on firefly luciferase (formulation recipe R6), 2.28E+09 p/s; in the data set on firefly luciferase (formulation recipe R7) it was 4.00E+09 p/s. For the same compound, the “Total Flux” value with firefly luciferase is on record as 5.54E+09 p/s.

`CCCCCCCCCC(=O)OCCCN(CC(=O)N(CCCOC(=O)CCCCCCCCC)CC(=O)N(CCCCCC)CC(=O)N(CCCOC(=O)CCCCCCCCC)CC(=O)N(CCCOC(=O)CCCCCCCCC)CC(=O)N(CCCCCC)CC(N)=O)C(=O)CNCCCn1ccnc1` [Compound 109] (H-[N(3-imidazol-1-ylpropyl)Gly][Gly(N-(3-decanoyloxypropyl))][Gly(N-(3-decanoyloxypropyl))][NHexGly][Gly(N-(3-decanoyloxypropyl))][Gly(N-(3-decanoyloxypropyl))][NHexGly]-NH2): in data set [1] (setting [3]), the PDI is recorded as 0.173 and the “Particle Size” value worked out at 87.5 nm. Besides, in the data set with hEPO, the hEPO was found to be 108 ng/mL. Further, the “mean percent encapsulation of RNA” value in the data set on mRNA is given as 69.5%. In addition, in the data set with luciferase, the “IM Flux” value is given as 3.97E+07 p/s and the “SC Flux” value is 1.00E+08 p/s. Moreover, the “% of injected dose remaining in liver” value in data set [2] stood at 48.80%. The “Total Flux” value in the data set on firefly luciferase was 1.85E+09 p/s.

Consider `CCCCCCCCCCCCN(C=O)CC(=O)N(CCCOC(=O)CCCCCCCCCCC)CC(=O)N(CC(=O)N(CCCn1ccnc1)CC(=O)N(CC(=O)N(CCCOC(=O)CCCCCCCCCCC)CC(=O)N(CCCCCCCCCCCC)CC(N)=O)CC(CC)CCCC)CC(CC)CCCC` (centres unmarked) [Compound 85] (For-[Gly(N-dodecyl)][N(3-lauroyloxypropyl)Gly][N(2-ethylhexyl)Gly][N(3-imidazol-1-ylpropyl)Gly][N(2-ethylhexyl)Gly][N(3-lauroyloxypropyl)Gly][Gly(N-dodecyl)]-NH2), for which, in data set [1] (setting [3]), the PDI stood at 0.102 and the “Particle Size” value came out at 81.1 nm. For the same compound, the hEPO in the data set on hEPO worked out at 26.3 ng/mL. Moreover, the “mean percent encapsulation of RNA” value in the data set with mRNA is listed as 0.0%. Further, in the data set with luciferase, the “IM Flux” value stood at 5.99E+07 p/s and the “SC Flux” value is 4.21E+07 p/s. In data set [2], the “% of injected dose remaining in liver” value is 40.01%.

For the compound `CCCCCCCCCCCC(=O)OCCCN(CC(=O)N(CCCOC(=O)CCCCCCCCCCC)CC(=O)N(CCCCCC)CC(=O)N(CCCOC(=O)CCCCCCCCCCC)CC(=O)N(CCCOC(=O)CCCCCCCCCCC)CC(=O)N(CCCCCC)CC(N)=O)C(=O)CNCCCn1ccnc1` [Compound 73] (H-[N(3-imidazol-1-ylpropyl)Gly][N(3-lauroyloxypropyl)Gly][N(3-lauroyloxypropyl)Gly][NHexGly][N(3-lauroyloxypropyl)Gly][N(3-lauroyloxypropyl)Gly][NHexGly]-NH2), in data set [1] (setting [3]), the PDI was 0.289 and the “Particle Size” value amounted to 111.2 nm. The compound further showed a hEPO in the data set with hEPO of 27.8 ng/mL. In addition, the “mean percent encapsulation of RNA” value in the data set on mRNA turned out to be 66.2%. Further, in the data set with luciferase, the “IM Flux” value is 5.36E+07 p/s and the “SC Flux” value was determined as 6.38E+07 p/s. Also, the “% of injected dose remaining in liver” value in data set [2] is 10.58%.

As to `CCCCCCCCCCCC(=O)OCCCN(C=O)CC(=O)N(CCCOC(=O)CCCCCCCCCCC)CC(=O)N(CC(=O)N(CCCN1CCOCC1)CC(=O)N(CCCOC(=O)CCCCCCCCCCC)CC(=O)N(CCCOC(=O)CCCCCCCCCCC)CC(=O)N(CC(N)=O)CC(CC)CCCC)CC(CC)CCCC` (centres unmarked) [Compound 81] (For-[N(3-lauroyloxypropyl)Gly][N(3-lauroyloxypropyl)Gly][N(2-ethylhexyl)Gly][Gly(N-3-morpholinopropyl)][N(3-lauroyloxypropyl)Gly][N(3-lauroyloxypropyl)Gly][N(2-ethylhexyl)Gly]-NH2), the hEPO in the data set on hEPO came out at 52 ng/mL. In the data set on luciferase, the “IM Flux” value turned out to be 2.11E+08 p/s and the “SC Flux” value is listed as 6.97E+07 p/s. For the same compound, the “% of injected dose remaining in liver” value in data set [2] stood at 6.17%. In addition, in the data set with firefly luciferase, the “Total Flux” value came to 1.89E+08 p/s.
